Laboratory results as given in patent US10808008B2, “Aromatic-cationic peptides and uses of same” (Cornell University, priority 2012, dated 2020).

Tests used:
[1] = target: cytochrome c/cardiolipin complex (Equus caballus, UniProt P00004); assay: Soret circular dichroism of cytochrome c with cardiolipin; format: biochemical; conditions: 10 μM cytochrome c, 30 μg/ml cardiolipin, peptide 1:1 with cytochrome c; pH 7.4
Protocol: Circular dichroism (CD) was carried out to examine the effects of the peptides on protecting the heme environment of cytochrome c from the acyl chain of CL. For heme proteins, the Soret CD spectrum is strictly correlated with the heme pocket conformation. In particular, the negative 416-420 nm Cotton effect is considered diagnostic of Fe(III)-Met80 coordination in native cytochrome c (Santucci and Ascoli, 1997). […] CD spectra were obtained using AVIV CD Spectrometer Model 410.
Changes in the Soret CD spectrum of cytochrome c (10 μM) were recorded in the absence (dotted line) and presence (dashed line) of 30 μg/ml CL, plus addition of different peptides (10 μM) (solid line) (FIG. 14). CD measurements were carried out using 20 mM HEPES, pH 7.5, at 25° C. and expressed as molar ellipticity (A) (m Deg). […] Accordingly, aromatic-cationic peptides of the present disclosure are useful for the prevention or treatment of diseases or disorders characterized by dysregulation of cardiolipin and/or cytochrome c, and/or diseases or disorders characterized by dysregulation of the cardiolipin/cytochrome c interaction. In addition, aromatic-cationic peptides of the present disclosure are useful to protect the heme environment of cytochrome c from the acyl chain of cardiolipin.
Circular Dichroism (CD) spectra were collected with an AVIA 62 DS spectrophotometer equipped with a sample temperature controller. CD spectra of the Soret region (370-450 nm) were recorded with 10-mm path length cells containing 20 mM Hepes, pH 7.4, and 10 μM cytochrome c, in the presence or absence of 30 μg/ml cardiolipin and different SS peptide analogs (SS-02, [atn]SS-02, [ald]SS-02, and SS-31). The maximum lipid concentration was kept low to avoid spectral distortions due to excessive light scattering. All measurements were done at 25° C. All spectra were corrected for background, and the final spectrum shown represents the average of at least three experiments.

[2] = target: cytochrome c and cardiolipin (Equus caballus, UniProt P00004); assay: Oxidation of ferrous cytochrome c by cardiolipin (A550); format: biochemical; conditions: 20 μM cytochrome c reduced by 50 μM ascorbic acid; 100 μg/ml cardiolipin
Protocol: Cytochrome c (20 μM) was reduced by 50 μM ascorbic acid until all available functionally active cytochrome c was reduced. The reduction of cytochrome c was monitored by the appearance of a peak at 550 nm in its absorbance spectrum (Molecular Devices, Sunnyvale, Calif.). […] The rate of oxidation was calculated based on slope of the change in absorbance intensity of 550 nm over 570 nm.

cytochrome c/CL complex = cytochrome c/CL complex (Equus caballus, UniProt P00004); assay: Peroxidase activity of cytochrome c/cardiolipin complex (Amplex Red); format: biochemical; conditions: 10 μM peptide; 2 μM cytochrome c; cardiolipin 100 μg/ml
Text: The six coordination of the heme in cytochrome c prevents direct interaction of H2O2 with the catalytic metal site, and native cytochrome c in solution is a poor peroxidase. Upon interaction with CL, cytochrome c undergoes a structural change with rupture of the Fe-Met80 coordination. […] The mechanism of action of cytochrome c peroxidase is similar to that of other peroxidases, such as horse radish peroxidase (HRP). Thus it is possible to use the amplex red-HRP reaction to investigate cytochrome c peroxidase activity. In the presence of peroxidase, amplex red (AR) reacts with H2O2 to form the red-fluorescent oxidation product, resorufin (Ex/Em=571/585).
Cytochrome c (2 μM) was mixed with CL (25 μg/ml) and 10 μM H2O2 in 20 mM HEPES, pH 7.4. Amplex red (50 μM) was then added and fluorescence emission monitored in real time using Hitachi F4500 fluorescence spectrophotometer. Addition of amplex red elicited rapid increase in fluorescence signal due to resorufin formation, providing direct evidence for peroxidase activity of cytochrome c/CL complex (FIG. 19A).
Assessment of cytochrome c peroxidase activity was achieved using the Amplex® Red assay (Invitrogen/Life Technologies, Carlsbad, Calif.). Amplex® Red is a reagent that reacts with H2O2 in a 1:1 stoichiometry to produce highly fluorescent resorufin (λex/λem=570/585) in the presence of a peroxidase. In this assay, cytochrome c is added in place of horseradish peroxidase. 2 μM cytochrome c was incubated with cardiolipin or cardiolipin-POPC liposomes (10 μg/ml) for 1 min in 20 mM HEPES (pH 7.4) or deionized water prior to the addition of 50 μM Amplex® Red reagent and 10 μM H2O2, and the reaction was allowed to proceed for an additional 5 minutes. The continuous time course data were obtained using Hitachi F-4500 fluorescence spectrophotometer. When comparing the different SS peptide analogs (10 μM) in inhibiting peroxidase activity cytochrome c (2 μM) in the presence of cardiolipin (100 μg/ml), a microplate spectrofluorometer (Molecular Devices, Sunnyvale, Calif.) was used. Horseradish peroxidase (HRP) was used for comparison, and the HRP concentration (0.001 U/ml) was optimized to match the rate of Amplex® Red peroxidation by cardiolipin-cytochrome c complex.

[3] = target: cardiolipin-cytochrome c complex (Equus caballus, UniProt P00004); assay: Cytochrome c reduction in the presence of cardiolipin; format: biochemical; conditions: 40 μM peptide; 20 μM cytochrome c, 100 μg/ml cardiolipin, 50 μM ascorbate; 10% with cardiolipin alone
Protocol: Reduction of cytochrome c (20 μM) was induced by the addition of glutathione (500 μM) in the absence or presence of CL (100 μg/ml) (FIG. 15A). Reduction of cytochrome c was monitored by absorbance at 550 nm using a 96-well UV-VIS plate reader (Molecular Devices). Addition of CL decreased the rate of cytochrome c reduction by half.
The time course of cytochrome c reduction by ascorbate was recorded at 550 nm and 570 nm using a 96-well plate reader (Molecular Devices, Sunnyvale, Calif.). For all reactions, cytochrome c was preincubated with cardiolipin in the presence or absence of SS peptides for 1 min. […] Ascorbate (50 μM) was added to initiate the reduction of cytochrome c, and the absorbance was recorded for 5 min. The rate of reduction was calculated based on slope of the change in absorbance intensity of 550 nm over 570 nm.

[4] = Fluorescence spectroscopy of labelled peptide with other phospholipids; format: binding; conditions: POPA, DPPG, POPS, cardiolipin
Protocol: 1-palmitoyl-2-oleoyl-sn-glycero-3-phosphocholine (POPC), 1-palmitoyl-2-oleoyl-sn-glycero-3-phosphate (POPA), 1-palmitoyl-2-oleoyl-sn-glycero-3-phospho-L-serine (POPS), 1-palmitoyl-2-oleoyl-sn-glycero-3-phosphoethanolamine (PE), and 1,2-dipalmitoyl-sn-glycero-3-phospho-(1′-rac-glycerol) (DPPG) were obtained from Avanti Polar Lipids Inc (Alabaster, Ala.).
Changes in the emission intensity of the [atn]SS-02 and the [ald]SS-02 were measured using a Hitachi F-4500 fluorescence spectrophotometer. The different solvents used to dissolve the various phospholipids (chloroform, methanol and ethanol) had negligible effect on the fluorescence spectrum of [atn]SS-02 and [ald]SS-02. All experiments were done in low ionic solution (deionized water) to optimize electrostatic interactions of peptides with phospholipids.

cytochrome c [5] = target: T1, cytochrome c (Equus caballus, UniProt P00004); assay: Fluorescence quenching of labelled peptides by cytochrome c; format: binding, horse; design: from tissue; host or cells: horse heart; conditions: Example 22; additions of cytochrome c (2 μM)
Protocol: Maximal fluorescence emission of SS-19 was monitored at 420 nm following excitation at 320 nm using Hitachi F-4500 fluorescence spectrophotometer.
The quenching by cytochrome c was not displaced by sequential additions of bovine serum albumin (FIG. 12C, A+arrows) (500 μg/ml). […] Accordingly, aromatic-cationic peptides of the present disclosure are useful for the prevention or treatment of diseases or disorders characterized by dysregulation of cytochrome c.
Fluorescence emission of SS-19 (10 μM) was monitored in real time (Ex/Em=320 nm/420 nm) using Hitachi F-4500 fluorescence spectrophotometer.
Interaction of SS peptides with horse heart cytochrome c in the absence or presence of free cardiolipin or cardiolipin/POPC (1:1) liposomes (prepared as described in Example 22) was examined by fluorescence quenching of [atn]SS-02 (λex/λem=320/420 nm) and [ald]SS-02 (λex/λem=360/510 nm) upon addition of cytochrome c (using a Hitachi F-4500 fluorescence spectrophotometer). The solvents used to dissolve cardiolipin and POPC had negligible effect on cytochrome c-dependent quenching of these peptides. All experiments were done in low ionic solution (deionized water) or 20 mM Hepes pH 7.4.

cytochrome c [6] = target: T1, cytochrome c; assay: as above; format: binding, horse; design: from tissue; host or cells: horse heart; conditions: additions of 75 μg/ml BSA

T1 sequence (P00004 2-105 limits assumed): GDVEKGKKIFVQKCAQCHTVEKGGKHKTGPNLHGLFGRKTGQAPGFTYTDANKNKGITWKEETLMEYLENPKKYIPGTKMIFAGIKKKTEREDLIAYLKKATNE
Chain of cytochrome c and cardiolipin (P00004 2-105 limits assumed): as above
Chain of cardiolipin-cytochrome c complex (P00004 2-105 limits assumed, one chain of several): as the sequence (P00004 2-105 limits assumed) above
Chain of cytochrome c/cardiolipin complex (P00004 2-105 limits assumed, one chain of several): as the sequence (P00004 2-105 limits assumed) above
Chain of cytochrome c/CL complex (P00004 2-105 limits assumed, one chain of several): as the sequence (P00004 2-105 limits assumed) above

| Substance | loss of the negative Cotton peak at 419 nm caused by cardiolipin [1] | oxidation of cytochrome c by cardiolipin (loss of the 550 nm peak) [2] | peroxidation rate of cytochrome c (cytochrome c/CL complex) | rate of cytochrome c reduction in the presence of cardiolipin [3] | specificity of peptide-phospholipid interaction [4] | quenching of fluorescence by cytochrome c (cytochrome c [5]) | reversal of cytochrome c quenching by BSA (cytochrome c [6]) |
| --- | --- | --- | --- | --- | --- | --- | --- |
| 2′,6′-Dmt-D-Arg-Phe-Lys-NH2 [SS-02] | prevented | inhibition of cytochrome c oxidation | about 70 % of control | about 60% | specific for phospholipids with anionic headgroups |  |  |
| tetramethylrhodamine methyl ester [TMRM, reference compound] |  |  |  |  |  | slightly quenched | completely reversed quenching |
